Source: patent publication US20100209378A1, “Dimethylcyclohexyl Derivatives as Malodor Neutralizers” (GIVAUDAN SA, priority 2007, published 2010)

Legend:
[1] = Sensory panel (LMS) reduction of synthetic axilla malodor on cotton pads; details: 100 ul of 1% solution of test compound on pad with 100 ul 0.1% axilla malodor; panel of 20, LMS
Description: A 0.1% ethanol solution of synthetic axilla malodor was prepared and a 100 ul aliquot was placed onto cotton pads. 1% solutions of test compounds were prepared and 100 ul dosed on to the axilla treated pads. One pad was left untreated as the control. Each pad was allowed to dry for 15 minutes. The test cotton pads were randomized, and a panel of 20 was used. Each panelist was asked to check a box that represented the strength of the axilla malodor using a Labeled Magnitude Scale (LMS) (Barry G. Green, Pamela Dalton, Beverly Cowart, Greg Shaffer, Krystyna Rankin and Jennifer Higgins. Evaluating the Labeled Magnitude Scale for Measuring Sensations of Taste and Smell. Chemical Senses. Vol. 21, pp 323-334, 1996).
The % reduction of malodor was calculated by: […]
Composition 1 was compared with composition 2 for malodor reduction efficiency using the method described in Example 6.

[2] = Headspace GC/MS malodor reduction, hexyl amine; details: 0.5 g test compound, 10 ul malodor in 1 l headspace jar, 60 minutes contact at 25° C.
Description: (§1) Amines are key contributors to many household malodors. Sulfides are present in odors associated with bad breath. In order to assess the malodor reduction efficacy of the compounds of the present invention, they were evaluated for their ability to reduce hexyl amine malodor and allyl disulphide by the following method.
(§2) A one liter glass headspace collection jar had placed inside it a 25 ml stoppered glass container which contained 0.5 g of a test compound. 10 ul of hexyl amine or allyl disulphide mercaptan as a representative malodor was injected into the headspace jar. This was left for 15 minutes at 25° C. to equilibrate. One ml/minute of the headspace was drawn for one minute through a Tenax™ headspace trap. The Tenax™ trap was removed and thermally desorbed into an Agilent 6890 GC/MS to analyze the quantity of hexyl amine and allyl disulphide mercaptan respectively in the headspace to determine the initial concentration of the hexyl amine malodor/ally disulphide mercaptan. The glass stopper was removed from the container and the test component and the malodor were left in contact for 60 minutes at 25° C. One ml/minute of the headspace was drawn for one minute through a Tenax™ trap and the amount of malodor remaining was determined as above.

[3] = Headspace GC/MS malodor reduction, allyl disulphide; details: 0.5 g test compound, 10 ul malodor in 1 l headspace jar, 60 minutes contact at 25° C.
Description: as §1, §2

[4] = Headspace GC/MS malodor reduction, onion oil; details: method of Example 4; diallyl sulfide and diallyl disulfide measured as standard
Description: as §2
(§3) Evaluation of the malodor reduction potential of the compounds of the present invention on malodors of natural garlic oil and onion oil using the methodology described in Example 4 is shown in Table 2. As standard for determining the reduction of onion oil odor the amount of diallyl sulfide and diallyl disulfide were measured, and propyl methyl disulfide and dipropyl disulfide for determining the reduction of garlic oil odor.

[5] = Headspace GC/MS malodor reduction, garlic oil; details: method of Example 4; propyl methyl disulfide and dipropyl disulfide measured as standard
Description: as §2, §3

CC(C)=CCCC(C)CCOC(=O)C=C(C)C (stereo not shown) [citronellyl methylcrotonate, reference compound]
% Reduction of Axilla [1]: 53.1%

CC(OCC(=O)O)C1CCCC(C)(C)C1 (stereo not shown) [Compound B, 2-(1-(3,3-dimethylcyclohexyl)ethoxy)acetic acid]
% Reduction of hexyl amine [2]: 91.4% | % Reduction of allyl disulphide [3]: 74.6% | % Reduction of onion oil odor [4]: 66.3% | % Reduction of garlic oil odor [5]: 73.2% | % Reduction of Axilla [1]: 67.6%

CC(OCCO)C1CCCC(C)(C)C1 (stereo not shown) [Compound C, 2-(1-(3,3-dimethylcyclohexyl)ethoxy)ethanol]
% Reduction of hexyl amine [2]: 71.2% | % Reduction of allyl disulphide [3]: 70.2% | % Reduction of onion oil odor [4]: 78.4% | % Reduction of garlic oil odor [5]: 67.4% | % Reduction of Axilla [1]: 61.4%

CC(O)C(=O)OC(C)C1CCCC(C)(C)C1 (stereo not shown) [Compound A, 1-(3,3-dimethylcyclohexyl)ethyl 2-hydroxypropanoate]
% Reduction of hexyl amine [2]: 80.3% | % Reduction of allyl disulphide [3]: 81.5% | % Reduction of onion oil odor [4]: 87.2% | % Reduction of garlic oil odor [5]: 87.7% | % Reduction of Axilla [1]: 77.2%
